target: plurality of kinases (Table 5) (Homo sapiens, UniProt Q9UIK4); assay: Further analysis of a plurality of inhibitors and a plurality of kinases on microarray (Example IX, Table 5); format: biochemical; settings: plate H3; inhibitor 100 uM;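 note: inhibition of each kinase by the inhibitors is given as a qualitative level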;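 for Inhibition level, DAPK2: level 0 no or unclear inhibition to Level 2 substantial inhibition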;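 for Inhibition level, PTK2B: level 0 no or unclear inhibition to Level 2 substantial inhibition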;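 for Inhibition level, STK4: level 0 no or unclear inhibition to Level 2 substantial inhibition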;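 for Inhibition level, TGFBR2: level 0 none or unclear then 1 little or marginal then 2 substantial inhibition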
Sequence (Q9UIK4 whole entry): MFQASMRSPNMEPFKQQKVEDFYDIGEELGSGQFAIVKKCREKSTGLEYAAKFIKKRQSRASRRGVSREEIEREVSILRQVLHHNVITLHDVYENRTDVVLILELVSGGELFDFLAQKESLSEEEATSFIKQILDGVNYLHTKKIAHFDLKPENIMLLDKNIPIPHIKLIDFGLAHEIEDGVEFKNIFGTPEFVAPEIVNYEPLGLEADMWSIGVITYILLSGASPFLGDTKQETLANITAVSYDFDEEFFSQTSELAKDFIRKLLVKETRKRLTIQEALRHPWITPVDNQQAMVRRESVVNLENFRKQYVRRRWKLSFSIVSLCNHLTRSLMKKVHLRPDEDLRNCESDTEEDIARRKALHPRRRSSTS

Compound	Inhibition level, DAPK2
COc1cc2ncnc(Nc3cccc(Cl)c3)c2cc1OC [AG 1478]	0
O=S(=O)(NCCNC/C=C/c1ccc(Br)cc1)c1cccc2cnccc12 [H-89]	2
CC(C)(C)n1nc(-c2ccc(Cl)cc2)c2c(N)ncnc21 [PP2]	2
O=c1c(O)c(-c2ccc(O)c(O)c2)oc2cc(O)cc(O)c12 [Quercetin]	0
CC(=O)c1c(O)c(C)c(O)c(Cc2c(O)c3c(c(C(=O)/C=C/c4ccccc4)c2O)OC(C)(C)C=C3)c1O [Rottlerin (Mallotoxin)]	1

target: plurality of kinases (Table 5) (Homo sapiens, UniProt P24723); assay: as above; format: biochemical; settings: plate B3; inhibitor 100 uM
Sequence (P24723 whole entry): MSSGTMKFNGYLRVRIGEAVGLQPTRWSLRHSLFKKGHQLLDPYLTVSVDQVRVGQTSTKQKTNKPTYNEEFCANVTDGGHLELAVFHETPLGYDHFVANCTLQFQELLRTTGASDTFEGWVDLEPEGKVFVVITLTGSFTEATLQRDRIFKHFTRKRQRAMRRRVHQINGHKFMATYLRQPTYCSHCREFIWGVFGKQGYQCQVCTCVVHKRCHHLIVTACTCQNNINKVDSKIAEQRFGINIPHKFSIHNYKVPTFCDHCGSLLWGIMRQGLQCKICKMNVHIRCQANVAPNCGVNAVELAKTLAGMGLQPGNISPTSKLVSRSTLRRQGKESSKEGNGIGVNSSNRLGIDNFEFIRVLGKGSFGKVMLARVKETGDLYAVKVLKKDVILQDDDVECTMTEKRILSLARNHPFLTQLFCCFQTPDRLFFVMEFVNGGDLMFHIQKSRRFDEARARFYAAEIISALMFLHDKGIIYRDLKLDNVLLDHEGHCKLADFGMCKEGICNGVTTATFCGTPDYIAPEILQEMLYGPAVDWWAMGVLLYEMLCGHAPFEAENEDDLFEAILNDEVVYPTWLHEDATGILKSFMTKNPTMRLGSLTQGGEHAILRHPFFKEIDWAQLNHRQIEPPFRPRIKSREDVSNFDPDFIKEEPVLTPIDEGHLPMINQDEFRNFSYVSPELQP

Compound	Inhibition level, PRKCH
COc1cc2ncnc(Nc3cccc(Cl)c3)c2cc1OC [AG 1478]	0
O=S(=O)(NCCNC/C=C/c1ccc(Br)cc1)c1cccc2cnccc12 [H-89]	2
CC(C)(C)n1nc(-c2ccc(Cl)cc2)c2c(N)ncnc21 [PP2]	2
O=c1c(O)c(-c2ccc(O)c(O)c2)oc2cc(O)cc(O)c12 [Quercetin]	0
CC(=O)c1c(O)c(C)c(O)c(Cc2c(O)c3c(c(C(=O)/C=C/c4ccccc4)c2O)OC(C)(C)C=C3)c1O [Rottlerin (Mallotoxin)]	2

target: plurality of kinases (Table 5) (Homo sapiens, UniProt P37173); assay: as above; format: biochemical; settings: plate C7; inhibitor 100 uM
Sequence (P37173 23-567): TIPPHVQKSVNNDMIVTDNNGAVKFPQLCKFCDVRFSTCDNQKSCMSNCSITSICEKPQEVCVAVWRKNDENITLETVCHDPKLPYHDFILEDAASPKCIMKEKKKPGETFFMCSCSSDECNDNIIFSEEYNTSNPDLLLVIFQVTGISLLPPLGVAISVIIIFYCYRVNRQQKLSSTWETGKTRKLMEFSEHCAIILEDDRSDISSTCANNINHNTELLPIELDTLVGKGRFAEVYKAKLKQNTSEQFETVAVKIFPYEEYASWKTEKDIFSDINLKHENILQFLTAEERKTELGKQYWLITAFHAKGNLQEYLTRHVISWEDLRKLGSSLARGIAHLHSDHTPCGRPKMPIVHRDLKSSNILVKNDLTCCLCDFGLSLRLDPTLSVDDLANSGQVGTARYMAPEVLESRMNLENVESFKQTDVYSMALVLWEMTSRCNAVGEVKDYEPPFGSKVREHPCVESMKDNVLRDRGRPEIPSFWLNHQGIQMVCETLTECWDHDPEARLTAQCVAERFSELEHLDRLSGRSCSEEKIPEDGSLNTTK

Compound	Inhibition level, TGFBR2
COc1cc2ncnc(Nc3cccc(Cl)c3)c2cc1OC [AG 1478]	2
O=S(=O)(NCCNC/C=C/c1ccc(Br)cc1)c1cccc2cnccc12 [H-89]	2
CC(C)(C)n1nc(-c2ccc(Cl)cc2)c2c(N)ncnc21 [PP2]	2
O=c1c(O)c(-c2ccc(O)c(O)c2)oc2cc(O)cc(O)c12 [Quercetin]	0
CC(=O)c1c(O)c(C)c(O)c(Cc2c(O)c3c(c(C(=O)/C=C/c4ccccc4)c2O)OC(C)(C)C=C3)c1O [Rottlerin (Mallotoxin)]	2

target: T1, plurality of kinases (Table 5) (Homo sapiens, UniProt P51813); assay: as above; format: biochemical; settings: plate B12; inhibitor 100 uM
T1 sequence (P51813 1-675): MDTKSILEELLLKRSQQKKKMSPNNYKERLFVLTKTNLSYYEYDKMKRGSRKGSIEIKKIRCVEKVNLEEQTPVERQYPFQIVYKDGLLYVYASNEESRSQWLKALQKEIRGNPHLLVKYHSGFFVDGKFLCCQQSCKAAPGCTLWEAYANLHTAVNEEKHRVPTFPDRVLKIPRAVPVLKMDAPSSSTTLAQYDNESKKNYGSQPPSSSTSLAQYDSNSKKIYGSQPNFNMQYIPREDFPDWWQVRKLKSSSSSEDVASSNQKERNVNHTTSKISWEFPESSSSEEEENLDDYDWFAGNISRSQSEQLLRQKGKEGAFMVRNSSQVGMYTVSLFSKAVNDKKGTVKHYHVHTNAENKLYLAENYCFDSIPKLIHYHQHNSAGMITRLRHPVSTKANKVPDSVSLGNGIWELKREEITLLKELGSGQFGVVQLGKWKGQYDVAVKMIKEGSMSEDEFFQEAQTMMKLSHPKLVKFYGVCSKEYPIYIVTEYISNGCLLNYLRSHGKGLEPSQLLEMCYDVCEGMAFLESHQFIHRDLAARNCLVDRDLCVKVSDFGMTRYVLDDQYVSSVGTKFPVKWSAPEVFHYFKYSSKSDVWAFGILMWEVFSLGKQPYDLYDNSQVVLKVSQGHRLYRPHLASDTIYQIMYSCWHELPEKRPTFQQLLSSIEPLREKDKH

Compound	Inhibition level, BMX
COc1cc2ncnc(Nc3cccc(Cl)c3)c2cc1OC [AG 1478]	1
O=S(=O)(NCCNC/C=C/c1ccc(Br)cc1)c1cccc2cnccc12 [H-89]	1
CC(C)(C)n1nc(-c2ccc(Cl)cc2)c2c(N)ncnc21 [PP2]	2
O=c1c(O)c(-c2ccc(O)c(O)c2)oc2cc(O)cc(O)c12 [Quercetin]	0
CC(=O)c1c(O)c(C)c(O)c(Cc2c(O)c3c(c(C(=O)/C=C/c4ccccc4)c2O)OC(C)(C)C=C3)c1O [Rottlerin (Mallotoxin)]	1

target: plurality of kinases (Table 5) (Homo sapiens, UniProt Q14289); assay: as above; format: biochemical; settings: plate G5; inhibitor 100 uM
Sequence (Q14289 whole entry): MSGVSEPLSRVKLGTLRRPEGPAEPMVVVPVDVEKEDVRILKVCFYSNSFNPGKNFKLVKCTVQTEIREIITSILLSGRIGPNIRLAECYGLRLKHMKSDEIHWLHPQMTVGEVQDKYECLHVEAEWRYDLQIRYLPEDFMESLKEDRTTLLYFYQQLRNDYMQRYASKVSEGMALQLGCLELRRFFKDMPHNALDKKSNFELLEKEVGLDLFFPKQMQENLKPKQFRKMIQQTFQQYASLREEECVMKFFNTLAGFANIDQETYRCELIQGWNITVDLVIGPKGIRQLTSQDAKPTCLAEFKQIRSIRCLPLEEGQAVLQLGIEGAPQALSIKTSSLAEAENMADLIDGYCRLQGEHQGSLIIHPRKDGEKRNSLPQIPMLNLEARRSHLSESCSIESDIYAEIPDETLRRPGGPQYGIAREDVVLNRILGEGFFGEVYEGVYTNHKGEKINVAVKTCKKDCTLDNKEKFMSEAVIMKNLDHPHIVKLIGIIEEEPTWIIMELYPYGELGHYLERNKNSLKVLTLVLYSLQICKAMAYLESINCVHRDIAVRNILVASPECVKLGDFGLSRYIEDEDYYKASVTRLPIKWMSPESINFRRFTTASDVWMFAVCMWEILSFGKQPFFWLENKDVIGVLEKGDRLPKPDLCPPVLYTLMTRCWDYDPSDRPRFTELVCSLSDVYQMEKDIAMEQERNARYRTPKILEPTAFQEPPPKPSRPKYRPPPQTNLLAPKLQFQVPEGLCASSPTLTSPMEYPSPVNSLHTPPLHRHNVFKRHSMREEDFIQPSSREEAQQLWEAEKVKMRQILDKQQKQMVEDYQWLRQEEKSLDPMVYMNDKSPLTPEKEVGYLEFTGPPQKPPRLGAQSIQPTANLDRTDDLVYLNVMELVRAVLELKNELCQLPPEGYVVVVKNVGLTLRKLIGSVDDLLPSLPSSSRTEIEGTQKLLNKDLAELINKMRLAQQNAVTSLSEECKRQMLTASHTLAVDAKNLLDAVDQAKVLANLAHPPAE

Compound	Inhibition level, PTK2B
COc1cc2ncnc(Nc3cccc(Cl)c3)c2cc1OC [AG 1478]	2
O=S(=O)(NCCNC/C=C/c1ccc(Br)cc1)c1cccc2cnccc12 [H-89]	1
CC(C)(C)n1nc(-c2ccc(Cl)cc2)c2c(N)ncnc21 [PP2]	2
O=c1c(O)c(-c2ccc(O)c(O)c2)oc2cc(O)cc(O)c12 [Quercetin]	1
CC(=O)c1c(O)c(C)c(O)c(Cc2c(O)c3c(c(C(=O)/C=C/c4ccccc4)c2O)OC(C)(C)C=C3)c1O [Rottlerin (Mallotoxin)]	2

target: T2, plurality of kinases (Table 5) (Homo sapiens, UniProt Q13043); assay: as above; format: biochemical; settings: plate D6; inhibitor 100 uM
T2 sequence (Q13043 1-487): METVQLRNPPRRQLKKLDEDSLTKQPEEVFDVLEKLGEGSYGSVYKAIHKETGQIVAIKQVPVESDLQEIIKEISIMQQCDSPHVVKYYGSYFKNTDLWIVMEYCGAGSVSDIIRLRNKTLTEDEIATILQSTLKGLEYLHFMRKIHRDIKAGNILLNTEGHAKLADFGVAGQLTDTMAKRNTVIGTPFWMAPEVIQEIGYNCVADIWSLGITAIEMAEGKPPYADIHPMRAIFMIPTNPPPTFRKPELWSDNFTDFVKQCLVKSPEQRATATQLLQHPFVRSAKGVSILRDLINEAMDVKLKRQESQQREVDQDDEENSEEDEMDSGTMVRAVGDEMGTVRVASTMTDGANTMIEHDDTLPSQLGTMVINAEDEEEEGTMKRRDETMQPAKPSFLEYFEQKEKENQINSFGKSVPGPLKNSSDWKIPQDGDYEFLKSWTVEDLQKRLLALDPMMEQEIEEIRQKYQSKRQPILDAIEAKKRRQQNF

Compound	Inhibition level, STK4
COc1cc2ncnc(Nc3cccc(Cl)c3)c2cc1OC [AG 1478]	1
O=S(=O)(NCCNC/C=C/c1ccc(Br)cc1)c1cccc2cnccc12 [H-89]	2
CC(C)(C)n1nc(-c2ccc(Cl)cc2)c2c(N)ncnc21 [PP2]	2
O=c1c(O)c(-c2ccc(O)c(O)c2)oc2cc(O)cc(O)c12 [Quercetin]	0
CC(=O)c1c(O)c(C)c(O)c(Cc2c(O)c3c(c(C(=O)/C=C/c4ccccc4)c2O)OC(C)(C)C=C3)c1O [Rottlerin (Mallotoxin)]	0

target: plurality of kinases (Table 5) (Homo sapiens, UniProt P07948); assay: as above; format: biochemical; settings: plate A5, Domain 0; inhibitor 100 uM
Sequence (P07948 whole entry): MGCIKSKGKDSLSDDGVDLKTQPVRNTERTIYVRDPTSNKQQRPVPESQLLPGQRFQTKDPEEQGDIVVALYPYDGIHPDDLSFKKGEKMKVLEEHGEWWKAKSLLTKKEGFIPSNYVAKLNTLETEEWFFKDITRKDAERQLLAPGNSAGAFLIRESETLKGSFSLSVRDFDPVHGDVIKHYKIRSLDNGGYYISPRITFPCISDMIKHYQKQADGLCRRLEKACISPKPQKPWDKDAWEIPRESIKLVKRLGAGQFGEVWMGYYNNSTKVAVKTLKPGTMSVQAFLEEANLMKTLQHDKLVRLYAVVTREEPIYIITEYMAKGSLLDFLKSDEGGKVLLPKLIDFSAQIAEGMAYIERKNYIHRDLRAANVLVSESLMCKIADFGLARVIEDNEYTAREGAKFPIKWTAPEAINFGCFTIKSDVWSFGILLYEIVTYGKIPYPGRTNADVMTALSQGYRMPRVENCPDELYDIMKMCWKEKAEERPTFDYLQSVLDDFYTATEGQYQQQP

Compound	Inhibition level, LYN
COc1cc2ncnc(Nc3cccc(Cl)c3)c2cc1OC [AG 1478]	2
O=S(=O)(NCCNC/C=C/c1ccc(Br)cc1)c1cccc2cnccc12 [H-89]	2
CC(C)(C)n1nc(-c2ccc(Cl)cc2)c2c(N)ncnc21 [PP2]	2
O=c1c(O)c(-c2ccc(O)c(O)c2)oc2cc(O)cc(O)c12 [Quercetin]	2
CC(=O)c1c(O)c(C)c(O)c(Cc2c(O)c3c(c(C(=O)/C=C/c4ccccc4)c2O)OC(C)(C)C=C3)c1O [Rottlerin (Mallotoxin)]	2

target: T3, plurality of kinases (Table 5) (Homo sapiens, UniProt P54753); assay: as above; format: biochemical; settings: plate B5; inhibitor 100 uM
T3 sequence (P54753 34-998): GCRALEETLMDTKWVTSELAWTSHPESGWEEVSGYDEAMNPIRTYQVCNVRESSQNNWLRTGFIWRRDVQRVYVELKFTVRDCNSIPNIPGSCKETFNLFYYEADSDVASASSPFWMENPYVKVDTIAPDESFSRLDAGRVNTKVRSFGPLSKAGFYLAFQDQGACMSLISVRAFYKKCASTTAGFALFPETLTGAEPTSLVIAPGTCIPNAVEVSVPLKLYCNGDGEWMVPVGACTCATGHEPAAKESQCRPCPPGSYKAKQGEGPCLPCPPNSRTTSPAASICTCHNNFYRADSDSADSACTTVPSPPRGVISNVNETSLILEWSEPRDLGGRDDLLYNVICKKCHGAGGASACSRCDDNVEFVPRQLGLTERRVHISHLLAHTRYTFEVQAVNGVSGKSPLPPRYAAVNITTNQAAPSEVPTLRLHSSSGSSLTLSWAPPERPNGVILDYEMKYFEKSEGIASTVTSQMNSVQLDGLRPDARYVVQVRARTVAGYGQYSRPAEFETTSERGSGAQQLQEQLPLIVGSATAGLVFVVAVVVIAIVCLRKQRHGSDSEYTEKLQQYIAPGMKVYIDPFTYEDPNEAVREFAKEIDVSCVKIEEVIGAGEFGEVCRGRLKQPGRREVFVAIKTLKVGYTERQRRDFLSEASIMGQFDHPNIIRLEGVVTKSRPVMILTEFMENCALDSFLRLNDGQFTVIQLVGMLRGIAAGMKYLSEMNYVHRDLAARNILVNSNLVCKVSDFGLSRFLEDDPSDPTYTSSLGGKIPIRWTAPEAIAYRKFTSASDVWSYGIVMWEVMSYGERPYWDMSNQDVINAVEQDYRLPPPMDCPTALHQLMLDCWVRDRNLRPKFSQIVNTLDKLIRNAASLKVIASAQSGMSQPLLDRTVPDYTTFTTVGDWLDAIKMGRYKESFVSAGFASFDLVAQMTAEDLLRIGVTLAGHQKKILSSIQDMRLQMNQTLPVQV

Compound	Inhibition level, EPHB3
COc1cc2ncnc(Nc3cccc(Cl)c3)c2cc1OC [AG 1478]	2
O=S(=O)(NCCNC/C=C/c1ccc(Br)cc1)c1cccc2cnccc12 [H-89]	1
CC(C)(C)n1nc(-c2ccc(Cl)cc2)c2c(N)ncnc21 [PP2]	2
O=c1c(O)c(-c2ccc(O)c(O)c2)oc2cc(O)cc(O)c12 [Quercetin]	2
CC(=O)c1c(O)c(C)c(O)c(Cc2c(O)c3c(c(C(=O)/C=C/c4ccccc4)c2O)OC(C)(C)C=C3)c1O [Rottlerin (Mallotoxin)]	2

Source: US7635572B2, “Methods for conducting assays for enzyme activity on protein microarrays” (Life Technologies Corporation, priority 2004, dated 2009)
